Measured values from patent US8063101B2, “Carotenoid analogs and derivatives for the prevention of platelet aggregation” (Cardax Pharmaceuticals, Inc., priority 2007, dated 2011).
Where two headings read alike, the source gives them in different places.

Key:
[1] = Monkey PK oral and intravenous (CXPK07502); assay type: in vivo; settings: monkeys; oral 10, 300, 500 mg/kg and intravenous 5 mg/kg
[2] = Dog PK of astaxanthin derivatives (CXPK07402, 07404, 07405, 07406); settings: dog, in vivo, po, 20 mg/kg
Description: In another experiment, ADL was administered to non-naïve beagle dogs orally (as an aqueous suspension containing 0.5% carboxymethylcellulose) and intravenously as an aqueous solution. Oral doses that included 10 mg/kg of the carotenoid derivative, 100 mg/kg of the carotenoid derivative, and 500 mg/kg of the carotenoid derivative were administered to each dog. The intravenous dosage was 5 mg/kg. (See FIG. 20, PK Study #CXPK07402). For each carotenoid derivative given to the dogs in this example, the amount of all astaxanthin isomers, the amount of trans astaxanthin isomers, and the amount of cis astaxanthin isomers in the plasma was determined at predefined time intervals for 3 days (72 hours).
In another experiment, ADL was administered to naïve beagle dogs orally (as an aqueous suspension containing 0.5% carboxymethylcellulose) twice a day for six days. Each oral dose included 75 mg/kg of the carotenoid derivative. (See FIG. 20, PK Study #CXPK07404). For each carotenoid derivative given to the dogs in this example, the amount of all astaxanthin isomers, the amount of trans astaxanthin isomers, and the amount of cis astaxanthin isomers in the plasma was determined at predefined time intervals for 6 days.
In another experiment, all-trans 3S,3′ S-astaxanthin diester di-beta-alanine dihydrochloride salt (hereinafter “ADA”); ADG; ADL; ADSa; and ADS were administered orally to separate non-naïve dogs as a aqueous suspension containing 0.5% carboxymethylcellulose. A single dose that included 20 mg/kg of the carotenoid derivative was administered to each dog. (See FIG. 20, PK Study #CXPK07405). For each carotenoid derivative given to the dogs in this example, the amount of all astaxanthin isomers was determined at predefined time intervals for 3 days (72 hours).
In another experiment, ADG or ADSa was administered to non-naïve beagle dogs orally (as an aqueous suspension containing 0.5% carboxymethylcellulose). Oral doses included either 50 mg/kg of the carotenoid derivative or 100 mg/kg of the carotenoid derivative. (See FIG. 20, PK Study #CXPK07406). For each carotenoid derivative given to the dogs in this example, the amount of all astaxanthin isomers, the amount of trans astaxanthin isomers, and the amount of cis astaxanthin isomers in the plasma was determined at predefined time intervals for 3 days (72 hours).

[3] = rat, in vivo
Description: In a another experiment, all-trans 3S,3′S-astaxanthin diester diglycinate dihydrochloride salt (hereinafter “ADG”); all-trans 3S,3′S-astaxanthin diester disarcosinate dihydrochloride salt (hereinafter “ADSa”); and ADL were administered orally to separate rats as a aqueous suspension containing 0.5% carboxymethylcellulose. A single dose that included 40 mg/kg of the carotenoid derivative was administered to each rat. (See FIG. 20, PK Study #CXPK07202). For each carotenoid derivative given to the rats in this example, the amount of all astaxanthin isomers, the amount of trans astaxanthin isomers, and the amount of cis astaxanthin isomers in the plasma was determined at predefined time intervals for 3 days (72 hours).
In another experiment, ADG; ADSa; and ADL were administered to separate rats intravenously as an aqueous solution. A single dose that included 5 mg/kg of the carotenoid derivative was administered to each rat. (See FIG. 20, PK Study #CXPK07202). For each carotenoid derivative given to the rats in this example, the amount of all astaxanthin isomers, the amount of trans astaxanthin isomers, and the amount of cis astaxanthin isomers in the plasma was determined at predefined time intervals for 3 days (72 hours).

platelets [4] = test: Platelet nitric oxide/peroxynitrite release ratio after IP3 stimulation; assay type: cell-based; settings: IP3 1.0 μM
Description: Values are reported as mean±S.D. (N=5). *p<0.05 and **p<0.001 versus control; †p<0.01 and ‡p<0.001 versus aspirin alone (ANOVA Student-Newman-Keuls multiple comparisons test; overall ANOVA: p<0.0001; F=129.98). Abbreviations: Astax=Astaxanthin. […] Values are reported as mean±S.D. (N=5). *p<0.05 and **p<0.001 versus control; †p<0.001 versus simvastatin alone (ANOVA Student-Newman-Keuls multiple comparisons test; overall ANOVA: p<0.0001; F=84.477). Abbreviations: Astax=Astaxanthin; Simva=Simvastatin. […] Values are reported as mean±S.D. (N=5). *p<0.05 and †p<0.001 versus control; §p<0.001 versus astaxanthin treatment (ANOVA Student-Newman-Keuls multiple comparisons test; overall ANOVA: p<0.0001; F=40.020).

platelets [5] = test: Platelet-derived peroxynitrite release after IP3 stimulation; assay type: cell-based; settings: IP3 1.0 μM; for effect on platelet ONOO— release: compound alone at 1.0 μM, FIG. 12
Description: Values are reported as mean±S.D. (N=5). *p<0.001 and †p<0.05 versus control; §p<0.001 versus aspirin treatment (ANOVA Student-Newman-Keuls multiple comparisons test; overall ANOVA: p<0.0001; F=52.475). […] Values are reported as mean±S.D. (N=5). *p<0.001 versus control and †p<0.001 versus aspirin alone (ANOVA Student-Newman-Keuls multiple comparisons test; overall ANOVA: p<0.0001; F=21.905). Abbreviations: Astax=Astaxanthin. […] Values are reported as mean±S.D. (N=5). *p<0.05 and **p<0.001 versus control; †p<0.05 and ‡p<0.001 versus simvastatin alone (ANOVA Student-Newman-Keuls multiple comparisons test; overall ANOVA: p<0.0001; F=13.716). Abbreviations: Astax=Astaxanthin; Simva=Simvastatin.

vascular platelets = test: Platelet-derived nitric oxide (NO) release after IP3 stimulation, NO nanosensor; assay type: cell-based, Wistar-Kyoto (WKY) rats
Description: Wistar-Kyoto (WKY) rats were anaesthetized and blood was collected directly from the heart using a 10 mL syringe that contained 3.8% sodium citrate (9:1, v v^−1). […] The platelet rich plasma (PRP) was then removed by aspiration. […] The number of platelets was counted and adjusted to 3.5×10^8 per mL with Tyrode-HEPES buffer. The platelets were incubated in an aggregometer with a NO nanosensor (working electrode) placed in the platelet suspension. […] All measurements of NO release were conducted in Hank's balanced salt solution (HBSS) at 37° C. The sensor operated with a three-electrode system: nanosensor (working electrode), saturated calomel electrode (reference electrode), and platinum wire (counter electrode, 0.5 mm diameter). The three electrodes were connected to a potentiostat/galvanostat PAR273. The baseline was stabilized after ˜20 s. With a nanoinjector, the test compounds were injected onto the surface of the cells following solubilization in buffer. In experiments with multiple compounds, the compounds were injected simultaneously. […] Data were acquired with the use of custom software. Amperograms (current vs. time curves) were recorded with a Guniry FAS1 Femtostat (Warminster, Pa.). The nanosensor for NO was calibrated using saturated solution (concentration 1.82 mM verified with the coulometric method). […] The data were presented as mean±S.D. for each of the triplicate measurements. The data (calculation and plotting) were transferred to Microcal Origin Software (OriginLab Corp., Northampton, Mass.). […] The NO concentration was calculated using current responses obtained from standard NO solution (prepared from […] stock solution, saturated aqueous NO solution).

[6] = parameters: species or system rats; settings: in vivo, po, 500 mg/kg
Description: In one experiment, astaxanthin; all-trans 3S,3'S-astaxanthin diester disuccinate disodium salt (hereinafter “ADS”); and all-trans 3S,3'S-astaxanthin diester […] tetrahydrochloride salt (hereinafter “ADL”) were administered orally to separate rats as a lipid suspension. A single dose that included 500 mg/kg of the carotenoid/carotenoid derivative was administered to each rat. (See FIG. 20, PK Study #CXPK07201). Plasma from each of the rats was collected 4 hours after ingestion and 8 hours after ingestion and all samples were analyzed by high performance liquid chromatography (“HPLC”). HPLC analysis was used to detect the presence of free underivatized carotenoid (e.g., in this example, astaxanthin) in the plasma. HPLC chromatograms were collected for each plasma sample taken.

[7] = system: human umbilical vein endothelial cells (HUVEC); test: CaI-stimulated NO/OONO- release ratio from HUVEC; assay type: cell-based; settings: 3S,3′S-AST 5.0 μM, clopidogrel 1.0 μM, alone or in combination; FIG. 7
Description: (§1) Human umbilical vein endothelial cells (HUVECs) were isolated into primary cultures from white female donors by Clonetics (San Diego, Calif.), essentially as described (Mason et al. 2005). All donors were reported to be healthy and none had pregnancy or prenatal complications. All measurements were recorded in vitro using a sensitive porphyrinic probe, also as previously described. HUVEC cells were grown in Ham's F12K medium with 2 mM L-glutamine adjusted to contain 1.5 g/L sodium bicarbonate and supplemented with 0.1 mg/mL heparin and 0.03-0.05 mg/mL endothelial cell growth supplement (ECGS) plus 10% fetal bovine serum. The HUVEC cells were kept in an atmosphere of elevated CO2 concentration (5%).

[8] = system: human umbilical vein endothelial cells (HUVEC); test: Calcium ionophore (CaI)-stimulated total nitric oxide release from HUVEC; assay type: cell-based; settings: 3S,3′S-AST 5.0 μM, clopidogrel 1.0 μM, alone or in combination; FIG. 5
Description: as §1
All measurements of NO release were conducted in Hank's balanced salt solution (HBSS) at 37° C. The sensor operated with a three-electrode system: nanosensor (working electrode), saturated calomel electrode (reference electrode), and platinum wire (counter electrode, 0.5 mm diameter). The three electrodes were connected to a potentiostat/galvanostat PAR273. […] The current (amps) proportional to the NO concentration was measured with the sensor, which operated in amperometric mode at a constant potential of 0.63 V. Data were acquired with the use of custom software. Amperograms (current vs. time curves) were recorded with a Guniry FAS1 Femtostat (Warminster, Pa.).

[9] = system: human umbilical vein endothelial cells (HUVEC); test: Calcium ionophore (CaI)-stimulated total peroxynitrite release from HUVEC; assay type: cell-based; settings: 3S,3′S-AST 5.0 μM, clopidogrel 1.0 μM, alone or in combination; FIG. 6
Description: as §1

[10] = astaxanthin combined with aspirin 1.0 μM, IP3 1.0 μM, FIG. 14

absorption and metabolism to astaxanthin in plasma [1] | absorption and metabolism to astaxanthin in plasma [2] | absorption and metabolism to astaxanthin in plasma ([3]; iv, 5 mg/kg) | absorption and metabolism to astaxanthin in plasma ([3]; po, 40 mg/kg) | free astaxanthin in rat plasma [6] | SMILES | effect on NO/ONOO— ratio (platelets [4]; aspirin separately, 1.0 μM) | effect on platelet ONOO— release (platelets [5]) | sustained production of NO with time (amperogram) (vascular platelets; IP3-stimulated, 3S,3′S-AST 5.0 μM alone or with clopidogrel 1.0 μM, FIG. 4) | mean increase in capacity to generate bioavailable NO vs. controls (vascular platelets; IP3 stimulation, homochiral astaxanthin 5.0 μM alone) | increase in platelet NO generation/release vs. mean control levels (vascular platelets; IP3 stimulation, homochiral astaxanthin 5 μM, clopidogrel 1 μM, each as monotherapy) | total NO release from vascular platelets (vascular platelets; IP3 stimulation, homochiral astaxanthin 5.0 μM, clopidogrel 1.0 μM, controls 6.6±0.3, mean±S.D.) | increase in NO release over untreated samples (vascular platelets; [10]) | potentiation of the NO release observed by aspirin alone (vascular platelets; [10]) | effect of astaxanthin on simvastatin's platelet-derived NO release (vascular platelets; increasing astaxanthin with simvastatin 1.0 μM, IP3 1.0 μM) | NOS coupling efficiency (ratio of NO/ONOO—), increase over control levels as well as aspirin alone (platelets [4]; astaxanthin combined with aspirin 1.0 μM) | effect on CaI-stimulated NO/OONO− release ratio from HUVEC [7] | effect on CaI-stimulated total nitric oxide release from HUVEC [8] | effect of astaxanthin on aspirin-induced ONOO— release (platelets [5]; increasing astaxanthin with aspirin 1.0 μM, FIG. 13) | effect on CaI-stimulated total peroxynitrite (OONO−) release from HUVEC [9]
absorbed by the monkeys and metabolized | absorbed by the dogs and metabolized | absorbed by the rats and metabolized | absorbed by the rats and metabolized | – | CNCC(=O)O[C@H]1CC(C)(C)C(/C=C/C(C)=C/C=C/C(C)=C/C=C/C=C(C)/C=C/C=C(C)/C=C/C2=C(C)C(=O)[C@@H](OC(=O)CNC)CC2(C)C)=C(C)C1=O.Cl.Cl (relative stereo) [ADSa, all-trans 3S,3′S-astaxanthin diester disarcosinate dihydrochloride salt] | – | – | – | – | – | – | – | – | – | – | – | – | – | –
– | – | – | – | – | CC(=O)Oc1ccccc1C(=O)O [aspirin, reference compound] | failed to produce a favorable effect | increased | – | – | – | – | – | – | – | – | – | – | – | –
– | – | – | – | no significant amount | CC1=C(/C=C/C(C)=C/C=C/C(C)=C/C=C/C=C(C)/C=C/C=C(C)/C=C/C2=C(C)C(=O)[C@@H](O)CC2(C)C)C(C)(C)C[C@H](O)C1=O [homochiral astaxanthin, astaxanthin] | – | decreased | 13 s | two-fold | ~100% | 12.9±0.3 molecules NO×10^6/platelet | 3 fold | 80% | enhanced the effect of simvastatin on platelet-derived NO release in a dose-dependent fashion | approximately three-fold | Statistically significant increases | Statistically significant increases | reverse the effect of aspirin on ONOO— release in a dose-dependent manner | Statistically significant decreases
